# Laboratory results published in US7973145B2, “Sulfonated sugar compounds, pharmaceutical compositions which contain the same, and methods of treating tumors with the same” (priority 2007, dated 2011).
# Assays:
# [1] = test system: bone marrow cells (immature erythrocytes); assay: Micronucleus test by rat intravenous administration; format: in vivo; details: male SD rats
# Procedure: Five male SD rats were assigned to each of the six groups (1) to (6): The test solutions for (1) to (5) contained a normal saline solution containing 10% CREMOPHOR EL as the solvents, and the above-described doses were administered to the rats twice in total for two consecutive days. To the positive control group, the above-described dose was administered once. About 24 hours after the administration, bone marrow smears were prepared. Two thousands of immature erythrocytes were counted for each individual, and the incidence of immature erythrocytes having a micronucleus was calculated. As the index of marrow proliferation suppression, the proportion of immature erythrocytes contained in 1000 erythrocytes was calculated. […] In addition, no influence was found on the marrow proliferation suppression in the test substance-administered group.
# [2] = test system: Human esophageal squamous cell carcinoma cells TE-8; assay: Radiosensitizing effect test, tumor-bearing mouse, human esophageal squamous cell carcinoma; format: in vivo, KSN nude mice
# Procedure: (§1) The radiosensitizing effect was examined through tumor-bearing mouse experiment.
# Human esophageal squamous cell carcinoma cells TE-8 were transplanted into the right femoral region of KSN nude mice in a ratio of 1×10^6 cells per individual. Subsequently, the mice were bred for about 14 days to form a tumor mass of about 150 mm^3 in each individual. Thereafter, four mice were assigned to each of the following groups (1) to (4):
# (§2) The drug was administered from Day 1 to Day 5, 2 mg/kg once a day. The subjects were exposed to radiation emitted from an X-ray generator (HS-225, manufactured by Shimadzu Co., Ltd.) at a dose of 2 Gy on Day 1 and Day 4. The tumor volume was calculated according to the calculation formula: (minor axis)^2×major axis×0.5.
# This experiment was conducted in the same manner as Example V-1, except that the drug dose administered from Day 1 to Day 5 was 1 mg/kg once a day, and the radiation dose was 4 Gy, and the tumor volume was measured.
# Human esophageal squamous cell carcinoma cells TE-8 were transplanted into the right femoral region of KSN nude mice in a ratio of 1×10^6 cells per individual. After a tumor mass of about 50 mm^3 was formed in each individual, four mice were assigned to each of the four groups (1) to (4):
# The drug was administered intraperitoneally from Day 1 to Day 5, 1 mg/kg once a day. The subjects were exposed to radiation emitted from an X-ray generator (HS-225, manufactured by Shimadzu Co., Ltd.) at a dose of 4 Gy on Day 1 and Day 4.
# [3] = test system: human vascular endothelial cells and human fibrocytes; assay: Tube formation inhibition test using vascular endothelial cell-fibrocyte cocultivation system (angiogenesis kit KZ-1000); format: cell-based; details: FIG. 10, combined with 2 Gy radiation, calcium(salt)-substituted compound, 10 ng/ml VEGF-A
# Procedure: Using a angiogenesis kit (KZ-1000) manufactured by Kurabo Industries Ltd., which is a cocultivation system for human vascular endothelial cells and human fibrocytes, the effects of αSQAP C10:0, αSQAP C14:0, αSQAP C18:0, αSQAP C22:0, βSQAP C18:0, and βSQAP C18:1 on tube formation were examined. Cultivation for tube formation using the kit was conducted according to the manufacturer's instruction manual.
# Using a medium containing a final concentration of 10 ng/ml of VEGF-A and being designed specifically for angiogenesis, the respective SQAP compounds were prepared to have intended concentrations. On Day 1 of the cell cultivation, special media each containing SQAP compounds at the respective concentrations and DMSO (negative control) were added to the cultivation systems. The systems were cultivated for 30 minutes, and irradiated with 2 Gy of cobalt 60. Thereafter, on Days 4, 7, and 10 of the cultivation, the media were replaced with newly prepared special media containing SQAP or DMSO. The media were removed on Day 11 of the cultivation, fixed with 70% ethanol, and the formed tubes were stained with anti-human CD31 antibody. The stained figures were photographed under an optical microscope, and the quantity of tube formation was calculated by the image analysis. The angiogenesis index was calculated according to the manufacturer's instruction manual.
# [4] = Solubility measurement in injectable water; format: physicochemical; details: 1 g in 5 ml of injectable water
# [5] = test system: Human colonic adenocarcinoma cells SW480; assay: Radiosensitizing effect test, tumor-bearing mouse, human colonic adenocarcinoma; format: in vivo, KSN nude mice
# Procedure: as §1
# Human colonic adenocarcinoma cells SW480 were transplanted into the right femoral region of KSN nude mice in a ratio of 1×10^6 cells per individual. Subsequently, the mice were bred for about 14 days to form a tumor mass of about 150 mm^3 in each individual.
# as §2
# Human colonic adenocarcinoma cells SW480 were transplanted into the right femoral region of KSN nude mice in a ratio of 2×10^6 cells per individual. After a tumor mass of about 50 mm^3 was formed in each individual, four mice were assigned to each of the four groups (1) to (4):
# The drug was administered from the tail vein from Day 1 to Day 5, 1 mg/kg once a day. The subjects were exposed to radiation emitted from an X-ray generator (HS-225, manufactured by Shimadzu Co., Ltd.) at a dose of 2 Gy on Day 1 and Day 4.
# [6] = test system: Salmonella typhimurium and Escherichia coli indicator bacterial strains; assay: Reverse mutation assay (Ames test); details: 2 μg to 5000 μg per plate, presence or absence of S9 mix, all five strains
# SD rats = assay: Single dose (acute) toxicity test; format: in vivo; details: female and male SD rats, single dose via tail vein
# Procedure: Using αSQAP C18:0, an acute toxicity test was conducted on rats. Five female and five male SD rats of 5 to 6 weeks old were assigned to each of the groups (1) to (7):
# The test solution for (1) and (4) to (7) contained a normal saline solution containing 10% CREMOPHOR EL, (2) contained a normal saline solution containing 2.5% CREMOPHOR EL, and (3) contained a normal saline solution containing 5% CREMOPHOR EL as the solvents.
# [7] = test system: Human colonic adenocarcinoma cells SW480; assay: Antineoplastic effect test (drug alone), tumor-bearing mouse; format: in vivo, KSN nude mice; details: Example VI, FIG. 9; calcium(salt)-substituted compound alone, intraperitoneally 20 mg/kg once a day Day 1 to Day 14
# Procedure: Human colonic adenocarcinoma cells SW480 were transplanted into the right femoral region of KSN nude mice in a ratio of 2×10^6 cells per individual. After a tumor mass of about 50 mm^3 was formed in each individual, four mice were assigned to each of the two groups (1) and (2):
# The drug was administered intraperitoneally from Day 1 to Day 14, 20 mg/kg once a day.
# [8] = intravenous, 25 to 200 mg/kg twice for two consecutive days
# [9] = Examples V-5 and V-6, FIG. 7 and 8, calcium(salt)-substituted compound, intraperitoneally 1 mg/kg once a day Day 1 to Day 5 plus X-ray 4 Gy on Day 1 and Day 4
# [10] = final concentrations of 5, 10, and 20 μM
# [11] = final concentrations of 5 and 10 μM
compound,measurement,setting,value
"3-O-(6-sulfo-α-D-quinovopyranosyl)-1-O-stearoyl-propane-1,3-diol calcium salt [αSQAP C18:0 calcium salt]",incidence of micronuclei (immature erythrocytes having a micronucleus) in comparison with the non-administered group,"[1]; intravenous, 25, 50, 100, 200 mg/kg twice for two consecutive days, bone marrow about 24 hours after",no significant increase
same,chromosomal aberration in bone marrow cells,[1]; [8],inducing no chromosomal aberration
same,marrow proliferation suppression (proportion of immature erythrocytes in 1000 erythrocytes),[1]; [8],no influence
"CCCCCCCCCC(=O)OCCCO[C@H]1O[C@H](CS(=O)(=O)[O-])[C@@H](O)[C@H](O)[C@H]1O.[Na+] [αSQAP C10:0, 3-O-(6-sulfo-α-D-quinovopyranosyl)-1-O-decanoyl-propane-1,3-diol sodium salt]","increase of the tumor volume, drug plus radiotherapy, in comparison with other groups",[2]; [9],most suppressed
same,tube formation,[3]; [10],inhibited tube formation in a concentration-dependent manner
"CCCCCCCCCCCCCC(=O)OCCCO[C@H]1O[C@H](CS(=O)(=O)[O-])[C@@H](O)[C@H](O)[C@H]1O.[Na+] [αSQAP C14:0, 3-O-(6-sulfo-α-D-quinovopyranosyl)-1-O-myristoyl-propane-1,3-diol sodium salt]",tube formation,[3]; [10],inhibited tube formation in a concentration-dependent manner
"CCCCCCCCCCCCCCCCCC(=O)OCCCO[C@H]1O[C@H](CS(=O)(=O)[O-])[C@@H](O)[C@H](O)[C@H]1O.[Na+] [αSQAP C18:0, 3-O-(6-sulfo-α-D-quinovopyranosyl)-1-O-stearoyl-propane-1,3-diol sodium salt]",solubility evaluation by the criteria of the general rules Japanese Pharmacopeia,[4]; 25° C.,readily soluble
same,dissolution in injectable water,[4]; strongly shaken at 25° C.,immediately dissolved
same,suppression of the increase of the tumor volume compared with radiotherapy alone,"[2]; Example V-1, FIG. 3, drug alone (un-irradiated), 2 mg/kg once a day Day 1 to Day 5, versus 2 Gy on Day 1 and Day 4 alone",at the same level
same,"increment of the tumor volume versus non-administered, un-irradiated group","[2]; Example V-1, FIG. 3, drug alone (un-irradiated), 2 mg/kg once a day Day 1 to Day 5, from about Day 10","fell below that in the (1) non-administered, un-irradiated group"
same,"increase of the tumor volume, drug plus radiotherapy, in comparison with other groups","[2]; Example V-2, FIG. 4, 1 mg/kg once a day Day 1 to Day 5 plus X-ray 4 Gy",most strongly suppressed
same,"increment in the tumor volume versus non-administered, un-irradiated group","[2]; Example V-2, FIG. 4, drug alone (un-irradiated), 1 mg/kg once a day Day 1 to Day 5","smaller than that in the (1) non-administered, un-irradiated group"
same,"increase of the tumor volume, drug plus radiotherapy, in comparison with other groups",[2]; [9],most suppressed
same,tube formation,[3]; [10],inhibited tube formation in a concentration-dependent manner
same,"increase of the tumor volume, drug plus radiotherapy","[5]; Example V-3, FIG. 5, 2 mg/kg once a day Day 1 to Day 5 plus X-ray 2 Gy on Day 1 and Day 4",markedly suppressed
same,"increase of the tumor volume, drug plus radiotherapy, in comparison with other groups","[5]; Example V-4, FIG. 6, calcium(salt)-substituted compound, tail vein 1 mg/kg once a day Day 1 to Day 5 plus X-ray 2 Gy on Day 1 and Day 4",most suppressed
same,mutagenicity,[6],negative
same,number of revertant colonies,[6]; calcium(salt)-substituted compound,did not increase
same,mortality during the test period,"SD rats; 25 to 800 mg/kg, observed for two days",No individual died
same,lethal dose,SD rats; estimated,higher than 800 mg/kg
same,increase of the tumor volume in comparison with the non-administered group,[7],markedly suppressed
"CCCCCCCCCCCCCCCCCCCCCC(=O)OCCCO[C@H]1O[C@H](CS(=O)(=O)[O-])[C@@H](O)[C@H](O)[C@H]1O.[Na+] [αSQAP C22:0, 3-O-(6-sulfo-α-D-quinovopyranosyl)-1-O-behenoyl-propane-1,3-diol sodium salt]",tube formation,[3]; [10],inhibited tube formation in a concentration-dependent manner
"CCCCCCCCCCCCCCCCCC(=O)OCC(O)CO[C@H]1O[C@H](CS(=O)(=O)[O-])[C@@H](O)[C@H](O)[C@H]1O.[Na+] (stereo partly drawn) [αSQMG C18:0, 3-O-(6-sulfo-α-D-quinovopyranosyl)-1-O-stearoyl-glycerol sodium salt, reference compound]","increase of the tumor volume, drug plus radiotherapy, in comparison with other groups","[2]; Example V-1, FIG. 3, 2 mg/kg once a day Day 1 to Day 5 plus X-ray 2 Gy on Day 1 and Day 4",most suppressed
"CCCCCCCCCCCCCCCCCC(=O)OCCCO[C@@H]1O[C@H](CS(=O)(=O)[O-])[C@@H](O)[C@H](O)[C@H]1O.[Na+] [βSQAP C18:0, 3-O-(6-sulfo-β-D-quinovopyranosyl)-1-O-stearoyl-propane-1,3-diol sodium salt]",tube formation,[3]; [11],inhibited tube formation in a concentration-dependent manner
"CCCCCCCC/C=C\CCCCCCCC(=O)OCCCO[C@@H]1O[C@H](CS(=O)(=O)[O-])[C@@H](O)[C@H](O)[C@H]1O.[Na+] [βSQAP C18:1, 3-O-(6-sulfo-β-D-quinovopyranosyl)-1-O-oleoyl-propane-1,3-diol sodium salt]",tube formation,[3]; [11],inhibited tube formation in a concentration-dependent manner
